Assay results reported in US20130089603A1, “COMPOSITIONS AND METHODS FOR TREATING OBESITY AND OBESITY-RELATED CONDITIONS” (CHELATEXX LLC, priority 2006, published 2013).
Like-named read-outs stand apart in the source and are kept apart here.

Key:
[1] = cited from earlier work
[2] = clinical trials on over 2800 patients for one or two years; cited from earlier work
[3] = cited from earlier work; remark: listed apart in the source
pancreatic lipase = target: T1, pancreatic lipase (Homo sapiens, UniProt P16233); assay: in vitro testing of lipase inhibitor effectiveness in presence of activated charcoal; format: biochemical; conditions: 60 mg of orlistat with simethicone and 400 mg of porous activated charcoal (not enteric-coated)
T1 sequence (P16233 17-465): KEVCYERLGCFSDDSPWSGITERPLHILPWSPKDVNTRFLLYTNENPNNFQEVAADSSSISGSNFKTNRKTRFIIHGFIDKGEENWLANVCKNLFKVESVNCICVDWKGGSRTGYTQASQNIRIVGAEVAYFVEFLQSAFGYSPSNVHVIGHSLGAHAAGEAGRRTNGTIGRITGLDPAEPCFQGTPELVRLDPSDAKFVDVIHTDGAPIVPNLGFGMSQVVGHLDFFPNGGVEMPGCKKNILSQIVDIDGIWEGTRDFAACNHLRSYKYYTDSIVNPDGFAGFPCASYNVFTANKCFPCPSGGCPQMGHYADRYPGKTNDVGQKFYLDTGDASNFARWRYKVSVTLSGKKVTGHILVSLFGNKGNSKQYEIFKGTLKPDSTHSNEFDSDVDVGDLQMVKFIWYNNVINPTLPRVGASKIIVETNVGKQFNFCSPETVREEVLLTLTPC
Text: While the embodiment described in the preceding paragraph has been proven effective in preventing Underwear Issues associated with lipase inhibitors, in vitro testing has shown that the effectiveness of the lipase inhibitor is decreased due to the fact that some of the lipase inhibitor is absorbed by the activated charcoal and is therefore not available for binding to pancreatic lipase. […] Rather, the pharmaceutical composition may be configured such that the lipase inhibitor and surfactant are released in the stomach, and the activated charcoal is not released until the small intestine. By doing so, the lipase inhibitor becomes irreversibly bound to the pancreatic lipase enzyme (about 25%) in the very first 10 centimeters of the small intestines (the duodenum), prior to release of the activated charcoal, thus ensuring that the activated charcoal will not interfere with the ability of the lipase inhibitor to inactivate pancreatic lipase. For this reason, the activated charcoal in some embodiments of the compositions and methods herein is enteric-coated in order to maintain the full efficacy of the lipase inhibitor. […] Therefore, by using an enteric coated porous activated charcoal, the small undigested fat, emulsified in the chyme by actions of the emulsifying agent, can be chelated by the released porous activated charcoal in the distal small bowel.

[4] = cited from earlier work; remark: listed apart in the source

CCCCCCCCCCC[C@@H](C[C@@H]1OC(=O)[C@H]1CCCCCC)OC(=O)[C@H](CC(C)C)NC=O [orlistat, tetrahydrolipstatin]
ingested fat whose digestion and absorption is prevented ([1]; 60 mg dose of orlistat (OTC)): 25%
ingested fat whose digestion and absorption is prevented ([1]; 120 mg dose of orlistat (prescription)): 30%
ingested fat whose digestion and absorption is prevented ([1]; dose not stated): 25-35%
Abdominal pain/discomfort (upper gastrointestinal adverse event) [2]: 25.5%
Fatty/Oily stool (lower gastrointestinal adverse event) [2]: 26.0%
Fecal incontinence (lower gastrointestinal adverse event) [2]: 7.7%
Fecal urgency (lower gastrointestinal adverse event) [2]: 22.1%
Flatus - with discharge (lower gastrointestinal adverse event) [2]: 23.9%
Increased defecation (lower gastrointestinal adverse event) [2]: 10.8%
Nausea (upper gastrointestinal adverse event) [2]: 8.1%
Oily Evacuation (lower gastrointestinal adverse event) [2]: 11.9%
Oily Spotting (lower gastrointestinal adverse event) [2]: 26.6%
study participants with adverse events ([3]; 60 mg of orlistat): 89.1%
study participants with adverse events ([3]; 120 mg of orlistat): 91.4%
decrease in the effectiveness of the orlistat (pancreatic lipase): 30%
individuals reporting orlistat adverse events ([4]; normal (25 grams of fat/meal) US diet): over 90%
individuals reporting orlistat adverse events ([4]; rigid low fat diet): over 50%
